According to EP0412158A1, “ONCOSTATIC DRUG” (priority 1987, dated 1988):
“And” between values parts separate entries of the source, which are not always exact repeats. Identical values can stand only once. Marks after values point to notes of the source that are not given here.

What was measured:
MM-46 breast cancer [1] = assay: MM-46 breast cancer, evaluation by size of tumor (Examples 21 to 24); type: in vivo, female C3H/He mice; details: 100 mg/kg; for Average weight of tumor / Number of tumorless mice /total number of mice: ip × 9; for T/control: ip×9, tumor weight
Description: A polymolybdate, K6[Mo7022(02)2]8H20 (Compound I), and the aforementioned other compounds (Compounds J to L) were severally dissolved in distilled water to obtain aqueous solutions containing the compounds in a fixed concentration of 10 mg/mi. To female C3H/He mice (five weeks old) to which MM-46 breast cancer had been transplanted, the aqueous solutions were administered to test the compounds for antineoplastic activity. To be more specific, the MM-46 breast cancer was transplanted to the mice at a ratio of 5.0 x 10^5 cells per mouse and the aqueous solutions were continuously administered (at a dose of 100 mg/kg of body weight) by intraperineal injection for nine days. On elapse of 14 days after the stop of the administration, the size of tumor in the mice was measured. For comparison, mice to which the aqueous solution was not administered and mice to which aminonitroso urea was administered were similarly tested.

MM-46 breast cancer [2] = type: in vivo, female C3H/He mice; details: 100 mg/kg, ip × 9
Description: The active compounds, I to L, mentioned above were severally dissolved in distilled water to obtain aqueous solutions containing the compounds in a fixed concentration of 10 mg/ml. To female C3H/He mice (five weeks old) to which the MM-46 breast cancer had been transplanted in a ratio of 1.0 x 10^5 cells per mouse, the aqueous solutions were continuously administered at a dose of 100 mg/kg of body weight by intraperitoneal injection for nine days to determine the mice's periods of survival. For comparison, mice to which no aqueous solution was administered and mice to which aminonitrosourea was administered were similarly tested.

[3] = tested on: methyl cholanthrene A tumor; assay: Antineoplastic activity against transplanted methyl cholanthrene A tumor, evaluation by size of tumor (Examples 1 to 6); type: in vivo, female BALB/C mice; details: No. 3, ip×9; for Change in body weight: body weight 13 days after transplantation; for T/control: tumor weight
Description: By dissolving alkylammonium salt of polymolybdic acid [NH3C3H7(iso)]s [Mo7O24] • 3H2O (Compound A) and other compounds (Compounds B to D) severally in distilled water, aqueous solutions containing the compounds in a fixed concentration of 10 mg/ml were obtained. These aqueous solutions were administered to female BALB/C mice (five weeks old) to which methyl cholanthrene A tumor had been transplanted to test the compounds for antineoplastic activity. To be specific, methyl cholanthrene A was transplanted to the mice in a ratio of 1.0 x 10^5 cells per mouse and the aqueous solutions were continuously administered to the mice by intraperitoneal injection ([…]) for nine days. On elapse of 14 days following the start of the administration, the tumors in the mice were measured. For comparison, mice to which no antineoplastic .drug was administered and mice to which aminonitroso urea was administered were tested by following the procedure described above.

methyl cholanthrene A = assay: Methyl cholanthrene A tumor, evaluation by extension of period of survival (Examples 7 to 11); type: in vivo, female BALB/C mice; details: No. 2; for Average number of days of survival / Number of toxically killed mice/total number of mice / T/control: ip×9; for Change in body weight: ip×9, D1~D9; for T/control: days of survival
Description: The aforementioned compounds, A to D, were severally dissolved in distilled water to obtain aqueous solutions containing the compounds in a fixed concentration of 10 mg/ml. To the female BALB/C mice (five weeks old) to which methyl cholanthrene A had been transplanted in a ratio of 1.0 x 10^5 cells per mouse, […] to determine the mices' periods of survival. For comparison, mice to which no antineoplastic drug was administered and mice to which aminonitroso urea was administered were similarly tested.

[4] = tested on: human breast cancer (MX-1); assay: Human breast cancer MX-1, SRC method (Examples 29 and 30); type: in vivo, female ICR/cd-1 mice
[5] = 129 mg/kg po(×5), individual mice
[6] = 257 mg/kg po(×5), individual mice
[7] = 30 mg/kg ip(×5), individual mice

Compound: [NH3 (iso)]6 [Mo7O23(O2)] • 5H20 [Compound L]
- Average weight of tumor (MM-46 breast cancer [1]): 1085.6±133.2** ** mg
- Number of tumorless mice /total number of mice (MM-46 breast cancer [1]): 0/8
- T/control (MM-46 breast cancer [1]): 00.380
- Average number of days of survival (MM-46 breast cancer [2]): 32.1±3.9(8) days
- Average weight of tumor after 14 days (MM-46 breast cancer [2]): 1086 ± 132(8) mg
- Ratio of elongation of life (5) (MM-46 breast cancer [2]): 94.5

Compound: K6 [Mo7O23(O2)] • 8H2O [Compound K]
- Average weight of tumor (MM-46 breast cancer [1]): 1139.5±221.1(8 ) mg
- Number of tumorless mice /total number of mice (MM-46 breast cancer [1]): 0/8
- T/control (MM-46 breast cancer [1]): 0.399
- Average number of days of survival (MM-46 breast cancer [2]): 32.1±2.7(8) days
- Average weight of tumor after 14 days (MM-46 breast cancer [2]): 1140± 221(8) mg
- Ratio of elongation of life (5) (MM-46 breast cancer [2]): 94.5

Compound: [NH3C3H7(iso)]6 [Mo7O24H] mixture [Compound C]
- Average weight of tumor ([3]; 25 mg/kg): 1425.2±130.6(10) mg
- Number of tumorless mice /total number of mice ([3]; 25 mg/kg): 0/10
- Change in body weight ([3]; 25 mg/kg): -2.19 g
- T/control ([3]; 25 mg/kg): 0.553
- Average number of days of survival (methyl cholanthrene A; 25 mg/kg): 30.2±2.0(10) days
- Number of toxically killed mice/total number of mice (methyl cholanthrene A; 25 mg/kg): 0/10
- Change in body weight (methyl cholanthrene A; 25 mg/kg): -2.19 g
- T/control (methyl cholanthrene A; 25 mg/kg): 134.2

Compound: [NH3C3H7(iso)]4 (Mo13O40] 1/3 • [Mo12O40H2]2/3 [Compound B]
- Average weight of tumor ([3]; 25 mg/kg): 1753.1±132.4(9) mg
- Number of tumorless mice /total number of mice ([3]; 25 mg/kg): 0/9
- Change in body weight ([3]; 25 mg/kg): -0.36 g
- T/control ([3]; 25 mg/kg): 0.681
- Average number of days of survival (methyl cholanthrene A; 25 mg/kg): 29.3±1.9(9) days
- Number of toxically killed mice/total number of mice (methyl cholanthrene A; 25 mg/kg): 0/9
- Change in body weight (methyl cholanthrene A; 25 mg/kg): -0.36 g
- T/control (methyl cholanthrene A; 25 mg/kg): 130.4

Compound: CCCCCCNC(=O)n1cc(F)c(=O)[nH]c1=O [HCFU(Mifur ol)]
- T/C ([4]; 129 mg/kg po(×5)): 61.15* %
- T7/To ([4]; 129 mg/kg po(×5), group mean): 0.844±0.040
- W7/Wo ([4]; 129 mg/kg po(×5), group mean): 1.104±0.037
- Body weight 7 days after transplantation (W7) [4, 5]: 21.3 g and 22.7 g and 21.8 g and 23.7 g
- T7/To [4, 5]: 0.929 and 0.885 and 0.741 and 0.821
- Tumor 7 days after transplantation (T7) [4, 5]: 13.0 omu and 11.5 omu (2×) and 10.5 omu
- W7/Wo [4, 5]: 1.087 and 1.207 and 1.028 and 1.097
- T/C ([4]; 257 mg/kg po(×5)): 66.82* %
- T7/To ([4]; 257 mg/kg po(×5), group mean): 0.922±0.042
- W7/Wo ([4]; 257 mg/kg po(×5), group mean): 1.080±0.035
- Body weight 7 days after transplantation (W7) [4, 6]: 21.7 g and 23.2 g and 18.2 g and 19.4 g
- T7/To [4, 6]: 0.896 and 1.037 and 0.833 and 0.923
- Tumor 7 days after transplantation (T7) [4, 6]: 13.0 omu and 14.0 omu and 12.5 omu and 12.0 omu
- W7/Wo [4, 6]: 1.109 and 1.166 and 1.011 and 1.037

Compound: O=c1[nH]cc(F)c(=O)[nH]1 [Compound 5-FU, 5-fluorouracil]
- T/C ([4]; 30 mg/kg ip(×5)): 56.48* %
- T7/To ([4]; 30 mg/kg ip(×5), group mean): 0.779±0.072
- T7/To [4, 7]: 0.839 and 0.576 and 0.917 and 0.786
- Tumor 7 days after transplantation (T7) [4, 7]: 13.0 omu and 7.5 omu and 16.5 omu and 11.0 omu

Compound: O.O.[NH4+].[NH4+].[NH4+].[NH4+].[NH4+].[NH4+].[O]=[Mo](=[O])([O-])[O][Mo](=[O])(=[O])[O][Mo](=[O])([O-])([O-])[O][Mo](=[O])(=[O])[O][Mo](=[O])([O-])([O-])[O][Mo](=[O])(=[O])[O][Mo](=[O])(=[O])[O-] [Compound D, [NH4]6 [Mo7O24]. 2H20]
- Average weight of tumor ([3]; 100 mg/kg): 1790.5±189.3(8) mg
- Number of tumorless mice /total number of mice ([3]; 100 mg/kg): 0/8
- Change in body weight ([3]; 100 mg/kg): +1.20 g
- T/control ([3]; 100 mg/kg): 0.695
- Average number of days of survival (methyl cholanthrene A; 100 mg/kg): 33.3±2.7(8) days
- Number of toxically killed mice/total number of mice (methyl cholanthrene A; 100 mg/kg): 0/8
- Change in body weight (methyl cholanthrene A; 100 mg/kg): +1.20 g
- T/control (methyl cholanthrene A; 100 mg/kg): 133.3
